Source: patent publication US4431809A, “Antibiotic A-33853 derivatives” (Eli Lilly and Company, priority 1982, dated 1984)
In brackets after ≈: the same amount, converted by molar mass. Read-outs that look alike come from different tables or passages of the source.

How the values were obtained:
[1] = 66 percent aqueous dimethylformamide
Solubility = type: physicochemical
Trichomonas vaginalis = assay: Tube-dilution test, Trichomonas vaginalis; type: cell-based; settings: for MIC: Trichomonas vaginalis, tube-dilution test, T. vaginalis, read-out: minimal inhibitory concentration (MIC); for in vitro activity against Trichomonas vaginalis: in words
[2] = system: Maryland B influenza virus; assay: In vitro antiviral activity, Maryland B influenza virus; type: cell-based; settings: in words
[3] = Acute toxicity in the mouse, IP; settings: in vivo
Eimeria tenella = assay: In vitro activity against Eimeria tenella; type: cell-based; settings: in words
[4] = system: Staphylococcus aureus 3055; assay: Agar-dilution screening (ICS); type: cell-based; settings: benzylpenicillin-susceptible
Salmonella typhosa SA12 = assay: Agar-dilution screening (ICS); settings: Salmonella enterica
[5] = system: Staphylococcus aureus 3074; assay: Agar-dilution screening (ICS); type: cell-based; settings: benzylpenicillin resistant
physchem = settings: 66% dimethylformamide in water
[6] = system: Pasteurella multocida (bovine); assay: In vitro MIC, bacteria pathogenic to animals; type: cell-based
Method: (§1) Antibiotic A-33853 was also tested in vitro to determine the MIC in μg./ml. against a number of bacterial organisms pathogenic to animals.

[7] = system: Bordetella bronchiseptica; assay: In vitro MIC, bacteria pathogenic to animals; type: cell-based
Method: as §1

Pseudomonas (animal) = assay: In vitro MIC, bacteria pathogenic to animals; type: cell-based
Method: as §1

Mycoplasma hyorhinis = assay: In vitro MIC, bacteria pathogenic to animals; type: cell-based
Method: as §1

Mycoplasma hyopneumoniae = assay: In vitro MIC, bacteria pathogenic to animals; type: cell-based; settings: Mesomycoplasma hyopneumoniae
Method: as §1

Escherichia coli = assay: In vitro MIC, bacteria pathogenic to animals; type: cell-based
Method: as §1

Mycoplasma gallisepticum = assay: In vitro MIC, bacteria pathogenic to animals; type: cell-based; settings: Mycoplasmoides gallisepticum
Method: as §1

Staphylococcus sp. = assay: In vitro MIC, bacteria pathogenic to animals; type: cell-based
Method: as §1

Aeromonas liquefaciens = assay: In vitro MIC, bacteria pathogenic to animals; type: cell-based; settings: Aeromonas hydrophila
Method: as §1

[8] = system: Pasteurella multocida (turkey); assay: In vitro MIC, bacteria pathogenic to animals; type: cell-based
Method: as §1

Pseudomonas (fish) = assay: In vitro MIC, bacteria pathogenic to animals; type: cell-based
Method: as §1

Mycoplasma synoviae = assay: In vitro MIC, bacteria pathogenic to animals; type: cell-based; settings: Mycoplasmopsis synoviae
Method: as §1

Streptococcus sp. = assay: In vitro MIC, bacteria pathogenic to animals; type: cell-based
Method: as §1

Salmonella dublin = assay: In vitro MIC, bacteria pathogenic to animals; type: cell-based; settings: Salmonella enterica
Method: as §1

mosquito = assay: Mosquito larvicide activity; type: in vivo; settings: in words
[9] = system: Staphylococcus aureus 3074; assay: Disc-plate screening; type: cell-based; settings: benzylpenicillin resistant, read-out: Zone Diameter
Method: (§2) Agar plates, inoculated with the test organism, were used; 6 mm. discs (0.02 ml. capacity) were saturated from log 2 dilutions of the antibiotic solution. Disc content was 1/5 or 1/50 of the concentration of the solution used, i.e., disc content of […] 30 μg. was obtained from a solution of 1500 μg./ml. concentration.

[10] = system: Staphylococcus aureus 3055; assay: Disc-plate screening; type: cell-based; settings: benzylpenicillin-susceptible, read-out: Zone Diameter
Method: as §2

[11] = system: Staphylococcus aureus 3130; assay: Disc-plate screening; type: cell-based; settings: benzylpenicillin resistant, methicillin resistant, read-out: Zone Diameter
Method: as §2

[12] = system: Streptococcus pyogenes C203; assay: Disc-plate screening; type: cell-based; settings: read-out: Zone Diameter
Method: as §2

[13] = system: Streptococcus pyogenes C203; type: cell-based; settings: agar-dilution, 24 hours
[14] = system: Staphylococcus aureus V41; type: cell-based
[15] = system: Staphylococcus epidermidis 222; type: cell-based; settings: agar-dilution, 24 hours
[16] = system: Staphylococcus aureus X400; type: cell-based; settings: agar-dilution, 24 hours
[17] = system: Streptococcus sp. Group D X66; type: cell-based
[18] = system: Streptococcus pneumoniae Park I; type: cell-based; settings: 24 h
[19] = system: Staphylococcus epidermidis EPI1; type: cell-based; settings: EPI1, 24 h
[20] = system: Haemophilus influenzae C.L.; type: cell-based; settings: agar-dilution, 24 hours
[21] = system: Streptococcus sp. Group D 9960; type: cell-based; settings: agar-dilution, 24 hours
[22] = system: Haemophilus influenzae 76; type: cell-based; settings: agar-dilution, 24 hours
[23] = alkaline solutions and most organic solvents

CC(=O)OC(=O)c1cccc2oc(-c3cccc(OC(C)=O)c3N(C(C)=O)C(=O)c3ncccc3OC(C)=O)nc12 [tetraacetyl A-33853, 2-[2-[acetyl[[3-(acetyloxy)-2-pyridinyl]carbonyl]amino]-3-(acetyloxy)phenyl]-4-benzoxazolecarboxylic acid, anhydride with acetic acid]
titratable groups [1]: no titratable groups | solubility (Solubility; acetone, methanol, ethyl acetate, tetrahydrofuran, water, dimethyl sulfoxide, 0.1 N aqueous NaOH, 0.1 N aqueous HCl): insoluble, or only sparingly soluble | solubility (Solubility; organic solvent or mixture, soluble in pyridine and chloroform, read-out: solubility): ≥ 1000 µg/mL | MIC (Trichomonas vaginalis): 125 µg/mL (≈ 223 µM) | in vitro activity against Trichomonas vaginalis (Trichomonas vaginalis): active in vitro | growth inhibition / activity in vitro [2]: active in vitro

O=C(Nc1c(O)cccc1-c1nc2c(C(=O)O)cccc2o1)c1ncccc1O [A-33853, 2-[3-hydroxy-2-[[(3-hydroxy-2-pyridinyl)carbonyl]amino]phenyl]-4-benzoxazolecarboxylic acid]
LD50 [3]: > 300 mg/kg | in vitro activity against Eimeria tenella (Eimeria tenella): active in vitro | MIC [4]: 2 µg/mL (≈ 5.11 µM) | solubility (Solubility; acetone, methanol, ethyl acetate, tetrahydrofuran, chloroform, and water): less soluble | solubility (Solubility; organic solvent or mixture, soluble in dimethylsulfoxide, pyridine, and 0.1 N sodium hydroxide, read-out: solubility): ≥ 5000 µg/mL | MIC (Trichomonas vaginalis): < 0.975 µg/mL | in vitro activity against Trichomonas vaginalis (Trichomonas vaginalis): active in vitro | MIC (Salmonella typhosa SA12): 2 µg/mL (≈ 5.11 µM) | MIC [5]: 2 µg/mL (≈ 5.11 µM) | pKa (physchem; pH 5, pKa (first titratable group)): ~7.25 | pKa (physchem; pH 5, pKa (second titratable group)): ~10 | pKa (physchem; pH 5, pKa (third titratable group)): ~12.2 | MIC [6]: 1.56 µg/mL (≈ 3.99 µM) | MIC [7]: > 50 µg/mL | MIC (Pseudomonas (animal)): > 50 µg/mL | MIC (Mycoplasma hyorhinis): 1.56 µg/mL (≈ 3.99 µM) | MIC (Mycoplasma hyopneumoniae): < 0.78 µg/mL | MIC (Escherichia coli): > 50 µg/mL | MIC (Mycoplasma gallisepticum): 1.56 µg/mL (≈ 3.99 µM) | MIC (Staphylococcus sp.): 3.12 µg/mL (≈ 7.97 µM) | MIC (Aeromonas liquefaciens): 3.12 µg/mL (≈ 7.97 µM) | MIC [8]: 6.25 µg/mL (≈ 16 µM) | MIC (Pseudomonas (fish)): 50 µg/mL (≈ 128 µM) | MIC (Mycoplasma synoviae): 1.56 µg/mL (≈ 3.99 µM) | MIC (Streptococcus sp.): 6.25 µg/mL (≈ 16 µM) | MIC (Salmonella dublin): > 50 µg/mL | mosquito larvicide activity (mosquito): active as a mosquito larvicide | zone of inhibition at 30 µg/disc ([9]; 30 μg./disc): 10.4 mm | zone of inhibition at 300 µg/disc ([9]; 300 μg./disc): 11.6 mm | zone of inhibition at 30 µg/disc ([10]; 30 μg./disc): 10 mm | zone of inhibition at 300 µg/disc ([10]; 300 μg./disc): 11 mm | zone of inhibition at 30 µg/disc ([11]; 30 μg./disc): 13.2 mm | zone of inhibition at 300 µg/disc ([11]; 300 μg./disc): 13.4 mm | zone of inhibition at 30 µg/disc ([12]; 30 μg./disc): 0 mm | zone of inhibition at 300 µg/disc ([12]; 300 μg./disc): 8 mm | growth inhibition / activity in vitro [2]: inhibits the growth in vitro

CC(=O)Oc1cccnc1C(=O)N(C(C)=O)c1c(OC(C)=O)cccc1-c1nc2c(C(=O)O)cccc2o1 [triacetyl derivative]
MIC [13]: 8 µg/mL (≈ 15.5 µM) | solubility (Solubility; [23]): soluble | solubility (Solubility; hydrocarbon solvents and water): insoluble | MIC ([14]; V41, agar-dilution, 24 hours, read-out: MIC): 32 µg/mL (≈ 61.8 µM) | MIC [15]: 4 µg/mL (≈ 7.73 µM) | MIC [16]: 64 µg/mL (≈ 124 µM) | MIC ([17]; agar-dilution, 24 hours, read-out: MIC): > 128 µg/mL | MIC [18]: 32 µg/mL (≈ 61.8 µM) | MIC ([19]; read-out: MIC): 16 µg/mL (≈ 30.9 µM) | MIC [20]: 4 µg/mL (≈ 7.73 µM) | MIC [21]: > 128 µg/mL | MIC [22]: 64 µg/mL (≈ 124 µM) | pKa (physchem; pH 4.7, pKa): 6.85

CC(=O)Oc1cccnc1C(=O)Nc1c(OC(C)=O)cccc1-c1nc2c(C(=O)O)cccc2o1 [diacetyl derivative]
MIC [13]: 8 µg/mL (≈ 16.8 µM) | solubility (Solubility; [23]): soluble | solubility (Solubility; hydrocarbon solvents and water): insoluble | MIC ([14]; V41, 24 h): 16 µg/mL (≈ 33.7 µM) | MIC [15]: 4 µg/mL (≈ 8.41 µM) | MIC [16]: 16 µg/mL (≈ 33.7 µM) | MIC ([17]; 24 h): > 128 µg/mL | MIC [18]: 8 µg/mL (≈ 16.8 µM) | MIC [19]: 8 µg/mL (≈ 16.8 µM) | MIC [20]: 4 µg/mL (≈ 8.41 µM) | MIC [21]: > 128 µg/mL | MIC [22]: 64 µg/mL (≈ 135 µM) | pKa (physchem; pH 4.92, pKa): 6.8
